What was measured:
athymic nude mice = assay: DIVAA with angioreactors, Example 2 (peptides in matrigel); type: in vivo
Procedure: (§1) Analysis and quantitation of angiogenesis was done using DIVAA as previously described (Martinez et al., J. Natl. Cancer Inst., 21; 94(16):1226-37, 2002; Guedez et al., Am. J. Pathol. 162, 1431-1439, 2003). Briefly, 10 mm long surgical-grade silicone tubes with only one end open (angioreactors) were filled with 20 μl of matrigel alone or mixed with AM, bFGF, VEGF, PAMP, and/or PAMP(12-20) at the indicated concentrations. Human lung cancer cell lines (see below) were also premixed with matrigel alone or in combination with PAMP(12-20) at 10,000 cells per angioreactor. After the matrigel solidified, the angioreactors were implanted into the dorsal flanks of anesthetized athymic nude mice (NCI colony). After eleven days, the mice were injected intravenously with 25 mg/ml FITC-dextran (100 μl/mouse, Sigma) 20 minutes before removing the angioreactors. Photographs of the implants were taken for visual examination of angiogenic response. Quantitation of neovascularization in the angioreactors was determined as the amount of fluorescence trapped in the implants and was measured in a HP Spectrophotometer (Perkin Elmer).
To further characterize this observation, an […] assay was employed that allows for more precise quantitation of angiogenic properties: the directed […] angiogenesis assay or DIVAA (Martinez et al., J. Natl. Cancer Inst., 21; 94(16): 1226-37, 2002; Guédez et al., Am. J. Pathol. 162, 1431-1439, 2003). The assay involves implanting small silicone capsules carrying the test substances under the skin of nude mice. After eleven days, the mice are injected with a specific amount of FITC-dextran, and the volume of blood circulating through the implant is quantified by measuring the fluorescence in the capsule. In addition, the new blood vessels growing into the silicone tube can be seen directly by transparency (FIG. 4A-F). […] The extent of the angiogenic response can be seen clearly when this response is compared with the negative control (FIG. 4A). The angiogenic response elicited by PAMP was dose-dependent (FIG. 4C-G). When compared to AM and VEGF responses at equimolar concentrations, a clear difference was observed.

A549 = assay: DIVAA, angiogenesis induced by tumor cells embedded in matrigel; type: in vivo, human; settings: A549, 10,000 cells per angioreactor, 100 nM PAMP(12-20)
Procedure: as §1
(§2) The human cancer cell lines used, A549 and H1299, were obtained from the American Tissue Culture Collection (ATCC) and fed with RPMI164O containing 10% fetal bovine serum (Invitrogen). […]

H1299 = assay: as above; type: in vivo, human; settings: H1299, 10,000 cells per angioreactor, 100 nM PAMP(12-20)
Procedure: as §1, §2

[1] = tested on: Human dermal microvascular endothelial cells; assay: Calcium measurements (ATP-induced calcium flux); type: cell-based; settings: 100 nM PAMP(12-20) with 10 nM PAMP and 1 mM ATP
Procedure: Human dermal microvascular endothelial cells were obtained from Cell Applications, Inc. and cultured in 96-well plates at 1.0×10^5 cells per well. The cells were loaded for 60 minutes at room temperature with the fluorescent dye FLIPR (Molecular Devices) and then transferred to the FlexStation II (Molecular Devices) for analysis. The test compounds were prepared in another plate at a concentration of 5× and were added to the proper wells by the robotic arm of the FlexStation II. Fluorescence was measured every five seconds in each well and recorded. One mM ATP (Sigma) was used as a calcium agonist (Lau et al., Life Sci. 73, 20 19-2028, 2003).

A549 tumors = assay: Xenograft experiment; type: in vivo, athymic nude mice
Procedure: Twenty female athymic nude mice from the NIH colony in Frederick (MD) were injected subcutaneously with 1.0×10^7 A549 cells/mouse. Two weeks later, all the mice had developed palpable tumors under the skin and at this time they were divided in two groups. Three times a week, each individual tumor was measured (length, height, thickness) and every mouse received an intratumoral injection, according to their group. Group 1 (control) received 100 μl PBS. […] When the tumor burden became unbearable, the mice were sacrificed.

proadrenomedullin N-terminal 20 peptide (12-20) (KWNKWALSR; listed as Homo sapiens) [PAMP(12-20), peptide which comprises only amino acids 12-20 of PAMP]
inhibition of the angiogenic response elicited by PAMP (athymic nude mice; 1 nM PAMP with 100 nM PAMP(12-20) (hundred-fold excess)): inhibited angiogenesis to the basal levels
inhibition of the angiogenic response elicited by PAMP (athymic nude mice; 1 nM full-length PAMP with increasing doses of PAMP(12-20)): dose-dependent inhibition
effect on basal angiogenesis (athymic nude mice; PAMP(12-20) by itself): did not modify basal angiogenesis
inhibition of tumor cell-induced angiogenic response (A549): completely blocked
inhibition of tumor cell-induced angiogenic response (H1299): completely blocked
reversal of PAMP block of ATP-induced calcium response [1]: initial response was recovered
treatment time after which statistical differences in tumor size were observed (A549 tumors; 1 mM PAMP(12-20) versus PBS, ten mice per group): nine
tumor growth versus PBS control (A549 tumors; 1 mM PAMP(12-20), 100 μl intratumoral injection three times a week): slower rate of tumor growth

Source: patent US7862815B2, “Methods for inhibiting angiogenesis with inhibitors of proadrenomedullin N-terminal 20 peptide (PAMP)” (The United States of America as represented by the …, priority 2002, dated 2011)
